Assay results taken from patent US20050282818A1, “Ubiquitin ligase inhibitors” (Rigel Pharmaceuticals, Inc., priority 2004, published 2005).

Key:
Format in all cases: cell-based
[1] = system: HCT116 cells; test: Cell proliferation PAD assay, HCT116; details: Homo sapiens, HCT-116, 6pt, 48 hours, read-out: HCT116 6pt
Text: (§1) Table 3 illustrates the inhibitory activity of the compounds of the invention determined by the PAD assay described above in a number of cell types. Apoptosis was not
(§2) Cell lines used are available from American Type Culture Collection (ATCC), for example, cell cultures containing A549 (ATCC# CCL-185), HeLa (ATCC# CCL-2), HCT116 ATTC# CCL-247), and H1299 (ATCC# CRL-5803) cells were maintained in T175 flasks following the ATCC recommended media and handling procedures. […] A 20,000 cells/ml solution was made for plating. Cells were plated in black Packard 96 well plates by placing 100 μl per well (2,000 cells per well). […] The definitions of the cell types used are as follows: A549 is lung carcinoma; HI 299 is non-small cell lung carcinoma; HI 155 is non-small cell lung carcinoma; AsPC-1 is pancreatic adenocarcinoma; Caov-3 is ovarian adenocarcinoma; COLO 205 is colorectal adenocarcinoma; DLD-1 colorectal adenocarcinoma; HCT116 is colorectal carcinoma; DU 145 is prostate carcinoma; ES-2 is ovarian clear cell carcinoma; H460 is large cell lung carcinoma; HELA is cervical adenocarcinoma; MIA PaCa-2 is pancreatice carcinoma; OVCAR-3 is ovarian adenocarcinoma; OVCAR8 is ovarian carcinoma; PC3 is prostate adenocarcinoma; SK-OV-3 is ovarian adenocarcinoma; SU86.86 is pancreatic carcinoma; TOV-21G is avarian clear cell carcinoma; U2OS is bone osteosarcoma; is ASPC-I is pancreatic adenocarcinoma; BXPC-3 is pabcreatic adenocarcinoma; HL60 is promyeloblast promyelocytic leukemia; K562 is bone marrow chronic myelogenous leukemia; L1210 is mouse lymphocytic leukemia; MOLT3 is T lymphoblast acute lymphoblastic leukemia; MOLT4 is T lymphoblast acute lymphoblastic leukemia; SW620 is colorectal adenocarcinoma; THP-1 is monocyte acute monocytic leukemia; U937 is histiocytic lymphoma; and UACC-257 is melanoma.
(§3) Compounds and additional media were added 24 hours after cell plating. A compound master plate was created with concentrations 500 times greater than the final concentration added to the cells. All compound testing was done in duplicate using 6.3 fold dilutions starting with 10 mM. All outside wells (and 4 internal wells) were DMSO controls. Taxol and at least one additional control were run on all plates. Three microliters of the compound master plate were added to deep well blocks containing 750 μl of RPMI media. One hundred microliters were transferred from the compound/media deep well blocks to the plated cells resulting in a 500 fold dilution of the compounds. Cells were grown at 37° C., 5% CO2 for 48 hours.
(§4) Cells to be analyzed by photography were fixed and stained. One hundred microliters of media were removed and 100 μl of 9.3% formamide was added to each well. Plates were left on the benchtop for 45 minutes. A staining solution containing 1.55 μl of 1 mg/ml DAPI added to 18.75 ml PBS was warmed for 15 minutes at 37° C. The cells were aspirated prior to washing with 100 μl of PBS. Seventy microliters of PBS were aspirated and 170 μl of the DAPI solution were added to each well of fixed cells. Plates were left at room temperature for one hour then aspirated and washed twice with 100 μl of PBS. The stained cells were left at 4° C. for a minimum of 16 hours before photographic analysis with Array Scan II (Cellomics). Analysis of the photographic images to determine numbers of live cells (proliferation), apoptotic cells and dead cells, were according to the methods described in U.S. Utility patent application Ser. No. 10/652,440, which incorporated herein in its entirety.

[2] = system: DLD-1 cells; test: Cell proliferation PAD assay, DLD-1; details: Homo sapiens, DLD1 cells, 6pt, 48 hours
Text: as §1, §2, §3, §4

[3] = system: HELA cells; test: Cell proliferation PAD assay, HeLa; details: Homo sapiens, 6pt, 48 hours
Text: as §1, §2, §3, §4

[4] = system: U2OS cells; test: Cell proliferation PAD assay, U2OS; details: Homo sapiens, 6pt, 48 hours
Text: as §1, §2, §3, §4

Compound	IC50 [1] [nM]	IC50 [2] [nM]	IC50 [3] [nM]	IC50 [4] [nM]
O=S(=O)(Nc1ccc2cn[nH]c2c1)c1ccc(Cl)c2nonc12 [compound 220, 7-chloro-N-1 H-indazol-6-yl-2,1,3-benzoxadiazole-4-sulfonamide]	1000 to 20000	1000 to 20000	1000 to 20000	1000 to 20000
Cc1cc(C)cc(-c2ccc([N+](=O)[O-])c3nonc23)c1 [compound 286, 4-(3,5-Dimethylphenyl)-7-nitro-2,1,3-benzoxadiazole]	< 1000	1000 to 20000	1000 to 20000	< 1000
